One data set relates to MDA-MB-231 cells. The data set can be described thus: Cell migration, wound healing (scratch) assay. The format is cell-based, human. The conditions noted are these: from AUC0-18h of wound confluence, n = 5; for logEC50 (migration of MDA-MB-231 cells): mean ± SEM. As for the experimental part:
The effect of compounds on cell migration was studied using wound healing assay (or scratch assay). Triple-negative breast cancer MDA-MB-231 cells were seeded in 24-well microplate at the cell density 12.5 × 10^4 cells/cm^2 (1 mL final volume) and left 24 h to attach and create a confluent monolayer. The cell monolayer was scratched with 200 µL pipette tip, producing a vertical straight wound in the middle of the well; growth medium was removed and wells were washed twice with growth medium to remove all detached cells. […] Wound closure was analyzed as a confluence of the initial cell-free area covered by migrating cells at the indicated time points measured with Gen 5 Image Analysis software. Confluence was calculated using the following formula: C(t) = [(Object Sum Area(t) − Object Sum Area(0))/(I(A) − Object Sum Area(0))] × 100, where C(t) is the percent wound confluence over time, Object Sum Area(t) is the area covered by cells at each time point, Object Sum Area(0) is the area covered by cells at time 0 h and I(A) is the total area of the 4X image.

A further data set relates to MDA-MB-231 breast tumors. The data set can be described thus: Subcutaneous in vivo breast cancer xenograft study, tumor growth. The arrangement: species or system mice. As to conditions: i.p. 5 consecutive days, Pd2Spm 5 mg/kg/day, cisplatin 2 mg/kg/day; for tumor growth reduction (versus the vehicle group): end of experiment (day 39 post-implantation); for average tumor volumes compared to vehicle-treated control mice: p < 0.05. As for the experimental part:
Female CBA nude (N:NIH(S)II-nu/nu) mice (6–7 weeks old, 21 animals in total) with combined immunodeficiency were purchased from i3S Animal Facility (Porto, Portugal). Animals were acclimatized at ICBAS-UP Rodent Animal House Facility (Porto, Portugal) at least one week prior to the experiments, were randomly distributed into groups of three per individually ventilated cage and were housed under controlled specific-pathogen-free (SPF) environmental conditions (temperature 22.5 ± 1.5 °C; relative humidity 50 ± 10%; 12 h light/dark cycle) with ad libitum access to water and standard pellet food (4RF21, Mucedola, Italy). Environmental enrichment included corncob bedding, paper roll tube and one large sheet of tissue paper for nesting. Animals were monitored daily for health status and welfare.

Data set [1] concerns Ehrlich ascites carcinoma (EAC). The conditions noted are these: 4 mg/kg, cited from earlier work; for tumor volume reduction: two injections per week for 2 weeks (cumulative 16 mg/kg); for deaths during treatment: two injections per week for 2 weeks.
For a further data set, the system named is MCF-12A cells. As to the kind of experiment: Cell proliferation assay (label-free live cell counting), MCF-12A. The conditions noted are these: for logIC50 ± SEM: n = 4; for IC50: n = 4, read-out: IC50 in µM [95% CI]. It is filed as cell-based, human.
Data set [2] is described as follows: Tolerability in tumor-bearing mice (body weight, behavior, relative organ weight, histopathology, deaths).
Data set [3] in a line: Hematological and plasma biochemical analyses in tumor-bearing mice. It is filed as in vivo. The conditions noted are these: Pd2Spm 5 mg/kg/day, cisplatin 2 mg/kg/day, end of study. As for the experimental part:
Red blood cells (RBC), hemoglobin (Hb), hematocrit (Hct), mean corpuscular volume (MCV) and mean corpuscular hemoglobin (MCH) were analyzed in a small aliquot of whole blood using ABX Micros 60 automated analyzer (Horiba ABX SAS, Montpellier, France). The remaining blood was centrifuged at 900× g for 15 min, and plasma was separated into aliquots and frozen at −80 °C for biochemical assays. Plasma parameters were analyzed using commercial kits for aspartate aminotransferase—AST (AST CP, A11A01629), alanine transaminase—ALT (ALT CP, A11A01627), cholesterol (CHOL CP, A11A01634), creatinine (Creatinine 120 CP, A11A01868), glucose (Glucose PAP CP, A11A01668), total protein (Total protein CP, A11A01669), triglycerides (Triglycerides CP, A11A01640) and urea (Urea CP, A11A01641). All parameters were determined with an automated analyzer Pentra 400 (ABX Horiba diagnostics, Montpellier, France).

The conditions of data set [4]: mice; cited from earlier work.
The subject of another data set is MDA-MB-468 TNBC cells. As to conditions: cited from earlier work.
The subject of another data set is MDA-MB-231. As to conditions: cited from earlier work.
For a further data set, the system named is breast cancer cells. As to conditions: cited from earlier work.
[5] abbreviates: Pd2Spm 5 mg/kg/day, cisplatin 2 mg/kg/day.
The mark [6] stands for this setting: tumor-bearing mice, i.p. 5 days, Pd2Spm 5 mg/kg/day, cisplatin 2 mg/kg/day.
Setting [7] is: organ weight/body weight × 100%, mean ± SEM, n = 7, cisplatin 2 mg/kg/day, Pd2Spm 5 mg/kg/day.

A word on the pEC50: it is −log10 of the EC50, conventionally taken in molar units. For orientation: IC50 means the concentration needed to halve the response being measured. What is called pIC50 is the IC50 on a negative log10 scale, so that one unit is a factor of ten.

Molecules are shown by their SMILES. pEC50, pIC50: −log10 of the molar value. Like-named read-outs stand apart in the source and are kept apart here.

On to `N.N.[Cl][Pt][Cl]` [Cisplatin, cis-dichlorodiammine platinum(II), reference compound], for which, in the data set on MDA-MB-231 cells, the “logEC50 (migration of MDA-MB-231 cells)” value is −4.329 ± 0.130 and the pEC50 was 4.33. For the same molecule, in the data set with MDA-MB-231 breast tumors, the “tumor growth reduction (versus the vehicle group)” value is 56.6% and the “average tumor volumes compared to vehicle-treated control mice” value is “significantly lower”. Further, in data set [1] (first study), the tumor volume reduction is listed as 36.4% and the deaths during treatment result is “two associated deaths”. Further, in data set [1] (second study), the tumor volume reduction is 46.7% and the deaths during treatment entry is on record as “no associated deaths”. Further, in the data set on MCF-12A cells (24 h of incubation), the “logIC50 ± SEM” value is listed as −5.510 ± 0.062 and the IC50 came out at 3.1 µM. In the data set on MCF-12A cells (48 h of incubation), the “logIC50 ± SEM” value is −5.988 ± 0.029 and the 50% inhibitory concentration (IC50) turned out to be 1 µM. In the data set on MCF-12A cells (72 h of incubation), the “logIC50 ± SEM” value is −5.981 ± 0.026 and the concentration for half-maximal inhibition (IC50) came to 1 µM. In addition, the “liver histopathology (glycogen accumulation, PAS)” value in data set [2] (setting [5]) was “swollen, pale and finely vacuolated cytoplasm due to intracellular accumulation of glycogen”. In data set [2] (compared to vehicle-treated animals), the “kidney histopathology (perirenal adipose tissue)” value is reported as “decreased perirenal adipose tissue”. Besides, the body weight entry in [2] (setting [6]) is “slower body weight recovery”.

Take `NCCCNCCCCNCCCN.[Cl][Pd][Cl].[Cl][Pd][Cl]` [Pd2Spm, dinuclear palladium(II)-spermine chelate]: in data set [3], the “hematologic analysis (RBC, Hb, Htc, MCV, MCH) versus vehicle” value is on record as “no significant deviations” and the “plasma biochemical analysis (urea, creatinine, glucose, AST, ALT, total proteins, triglycerides, total cholesterol) versus vehicle” value is reported as “did not reveal changes”. For the same molecule, in data set [4], the “accumulation in major organs relative to cisplatin” value is “lower accumulation in major organs” and the “serum terminal half-life relative to cisplatin” value was “very similar serum terminal half-life to cisplatin”. For the same molecule, in the data set on MDA-MB-468 TNBC cells, the IC50 values entry is recorded as “within a low micromolar range”. For the same molecule, the IC50 values result with MDA-MB-231 is recorded as “within a low micromolar range”. In the data set with MDA-MB-231 cells, the “logEC50 (migration of MDA-MB-231 cells)” value is −4.243 ± 0.113 and the pEC50 was 4.24. Moreover, in the data set with MDA-MB-231 breast tumors, the “tumor growth reduction (versus the vehicle group)” value is on record as 43.3% and the “average tumor volumes compared to vehicle-treated control mice” value is listed as “significantly lower”. The “growth inhibition at the highest concentration” value with MCF-12A cells (100 µM, compared to same dosage of cisplatin) was “did not produce a maximum growth inhibition”. Moreover, the pIC50 in the data set with MCF-12A cells (24-72 h, read-out: IC50 values (range over incubation times)) was 3.64 to 4.05. Moreover, in the data set with MCF-12A cells (48 h of incubation), the “logIC50 ± SEM” value is on record as −4.039 ± 0.023 and the IC50 turned out to be 91.5 µM. In addition, in the data set with MCF-12A cells (72 h of incubation), the “logIC50 ± SEM” value is −4.048 ± 0.068 and the IC50 stood at 89.5 µM. The “amount accumulated in breast cancer cells relative to cisplatin” value in the data set with breast cancer cells is “approximately four times lower”. For the same molecule, the “liver histopathology (glycogen accumulation, PAS)” value in [2] (setting [5]) is on record as “not observed”. For the same molecule, the deaths during treatment result in data set [2] (cumulative dose of 25 mg/kg (5 mg/kg/day for 5 consecutive days)) is “no associated deaths”. Further, in [2] (setting [7]), the “Relative Organ Weight (%), Brain” value amounted to 1.79 ± 0.16%; the “Relative Organ Weight (%), Heart” value was 0.53 ± 0.06%; the “Relative Organ Weight (%), Kidneys” value turned out to be 1.43 ± 0.10%; the “Relative Organ Weight (%), Liver” value is recorded as 6.14 ± 0.29%. In data set [2] (setting [7]), the “Relative Organ Weight (%), Lungs” value stood at 0.77 ± 0.08% and the “Relative Organ Weight (%), Spleen” value is listed as 0.32 ± 0.11%. In [2] (setting [6]), the body weight result is on record as “did not show changes in body weight” and the “signs of general toxicity” value was “no such adverse effects were observed”.

Source of the values: PMC8869242 (Biomedicines, 2022).
